Reference: ChEMBL document CHEMBL1134297, “5,6-Diphenylpyridazine derivatives as acyl-CoA:cholesterol acyltransferase inhibitors” (J Med Chem, 2001)
Where “and” joins values, the source holds several entries; their conditions need not be identical. Equal entries are not always repeated.

Tests used:
[1] = target: T1, Sterol O-acyltransferase 1 (Rattus norvegicus, UniProt O70536); experiment: In vitro acyl-coenzyme A:cholesterol acyltransferase inhibition in rat liver microsomes; parameters: species or system Microsome
T1 sequence (O70536 whole entry): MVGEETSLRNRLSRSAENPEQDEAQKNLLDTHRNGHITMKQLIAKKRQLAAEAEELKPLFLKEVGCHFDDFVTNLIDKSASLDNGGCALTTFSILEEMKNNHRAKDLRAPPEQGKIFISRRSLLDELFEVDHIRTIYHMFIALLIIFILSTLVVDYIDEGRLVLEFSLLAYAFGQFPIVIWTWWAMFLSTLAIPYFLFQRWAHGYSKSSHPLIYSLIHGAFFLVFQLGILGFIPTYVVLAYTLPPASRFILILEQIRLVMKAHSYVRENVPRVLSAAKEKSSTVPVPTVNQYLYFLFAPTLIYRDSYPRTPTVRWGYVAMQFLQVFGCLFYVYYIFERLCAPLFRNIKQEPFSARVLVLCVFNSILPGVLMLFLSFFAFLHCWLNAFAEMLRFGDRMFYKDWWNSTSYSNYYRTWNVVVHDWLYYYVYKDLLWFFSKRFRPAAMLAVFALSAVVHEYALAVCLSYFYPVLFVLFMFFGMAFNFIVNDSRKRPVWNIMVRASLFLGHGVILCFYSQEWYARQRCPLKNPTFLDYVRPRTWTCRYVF

[2] = target: Sterol O-acyltransferase 1 (Mus musculus) (UniProt Q61263); experiment: Inhibitory activity against Acyl-coenzyme A:cholesterol acyltransferase in macrophages
[3] = Percent inhibition of cell viability in murine macrophages; type: functional, Mus musculus; parameters: concentration or dose not given beside the values
Mus musculus = species on record: Mus musculus; experiment: Inhibition of cholesterol esterification in macrophages (Cholesterol efflux); type: functional

Sequence of Sterol O-acyltransferase 1 (Mus musculus) (Q61263 whole entry, looked up): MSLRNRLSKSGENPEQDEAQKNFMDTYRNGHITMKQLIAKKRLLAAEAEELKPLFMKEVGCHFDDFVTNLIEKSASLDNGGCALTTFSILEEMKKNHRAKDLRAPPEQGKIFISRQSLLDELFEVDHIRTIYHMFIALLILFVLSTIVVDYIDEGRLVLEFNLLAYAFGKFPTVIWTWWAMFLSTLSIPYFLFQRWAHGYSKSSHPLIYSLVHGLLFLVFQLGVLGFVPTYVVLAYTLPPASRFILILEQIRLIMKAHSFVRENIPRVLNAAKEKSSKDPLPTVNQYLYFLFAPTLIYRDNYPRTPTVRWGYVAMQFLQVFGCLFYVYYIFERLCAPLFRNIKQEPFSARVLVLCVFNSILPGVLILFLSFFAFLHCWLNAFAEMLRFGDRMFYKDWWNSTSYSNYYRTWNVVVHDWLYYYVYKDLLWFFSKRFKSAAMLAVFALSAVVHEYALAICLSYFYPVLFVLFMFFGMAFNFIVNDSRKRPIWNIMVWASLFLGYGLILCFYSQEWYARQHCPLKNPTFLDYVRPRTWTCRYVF

IC50 [1] [µM] | SMILES | other results
119 | O=c1cc(-c2ccccc2)c(-c2ccccc2)nn1C1CCCC1 | 
58 | CCCCCCCOc1cc(-c2ccccc2)c(-c2ccccc2)nn1 | IC50 [2]: 5.1 µM; Inhibition [3]: <1%; Esterification inhibitory concentration (Mus musculus): 12.6 µM and 11.8 µM
73 | CCCCCOc1cc(-c2ccccc2)c(-c2ccccc2)nn1 | 
75 | CCCCCC[S+]([O-])c1cc(-c2ccccc2)c(-c2ccccc2)nn1 (stereo unspecified) | 
49 | CCCCCCCS(=O)(=O)c1cc(-c2ccccc2)c(-c2ccccc2)nn1 | 
56 | CCCCCCn1nc(-c2ccccc2)c(-c2ccccc2)c(C)c1=O | 
36 | CCCCCCCCS(=O)(=O)c1cc(-c2ccccc2)c(-c2ccccc2)nn1 | 
180 | CCCCCCCCCOc1cc(-c2ccccc2)c(-c2ccccc2)nn1 | 
> 300 | O=C(O)CCCCCCSc1cc(-c2ccccc2)c(-c2ccccc2)nn1 | 
66 | CCCCCn1nc(-c2ccccc2)c(-c2ccccc2)cc1=O | 
> 300 | O=C(O)CCCCCCCCSc1cc(-c2ccccc2)c(-c2ccccc2)nn1 | 
55 | CCCCCCCNc1cc(-c2ccccc2)c(-c2ccccc2)nn1 | 
76 | CCCCCCCSc1cc(-c2ccccc2)c(-c2ccccc2)nn1 | 
152 | CC(C)n1nc(-c2ccccc2)c(-c2ccccc2)cc1=O | 
130 | CCCCCCCCSc1cc(-c2ccccc2)c(-c2ccccc2)nn1 | 
116 | CCCCCCCCCSc1cc(-c2ccccc2)c(-c2ccccc2)nn1 | 
230 | CCCn1nc(-c2ccccc2)c(-c2ccccc2)cc1=O | 
> 300 | O=C(O)CCCCCSc1cc(-c2ccccc2)c(-c2ccccc2)nn1 | 
 | CCCCCCCCCNc1cc(-c2ccccc2)c(-c2ccccc2)nn1 | Inhibition [3]: 5.9% and 2.7% and <1%; Esterification inhibitory concentration (Mus musculus): 14.1 µM and 13.8 µM
104 | CCCCCCCCOc1cc(-c2ccccc2)c(-c2ccccc2)nn1 | 

IC50 [1] [µM] | SMILES | other results
76 | CCCCCCCCCS(=O)(=O)c1cc(-c2ccccc2)c(-c2ccccc2)nn1 | 
> 300 | O=c1cc(-c2ccccc2)c(-c2ccccc2)nn1C1CCCCC1 | 
92 | CCCCCCCC[S+]([O-])c1cc(-c2ccccc2)c(-c2ccccc2)nn1 (stereo unspecified) | 
85 | CCCCCCCCCn1nc(-c2ccccc2)c(-c2ccccc2)cc1=O | 
> 300 | CCCCCC(=O)Nc1cc(-c2ccccc2)c(-c2ccccc2)nn1 | 
> 300 | O=C(O)CCCCCCCSc1cc(-c2ccccc2)c(-c2ccccc2)nn1 | 
57 | CCCCCCn1nc(-c2ccccc2)c(-c2ccccc2)cc1=O | 
> 300 | O=C(O)CCCCCCCn1nc(-c2ccccc2)c(-c2ccccc2)cc1=O | 
62 | CCCCCCSc1cc(-c2ccccc2)c(-c2ccccc2)nn1 | 
80 | CCCCCCCCn1nc(-c2ccccc2)c(-c2ccccc2)cc1=O | 
> 300 | O=C(O)CCCCCCn1nc(-c2ccccc2)c(-c2ccccc2)cc1=O | 
60 | CCCCCCS(=O)(=O)c1cc(-c2ccccc2)c(-c2ccccc2)nn1 | 
176 | CCCCn1nc(-c2ccccc2)c(-c2ccccc2)cc1=O | 
24 | CCCCCCNc1cc(-c2ccccc2)c(-c2ccccc2)nn1 | 
86 | CCCCCCCn1nc(-c2ccccc2)c(-c2ccccc2)cc1=O | 
40 | CCCCCCCCNc1cc(-c2ccccc2)c(-c2ccccc2)nn1 | IC50 [2]: 3.2 µM; Inhibition [3]: 11.5% and 9.9% and 3.7% and 4.8%; Esterification inhibitory concentration (Mus musculus): 12.9 µM and 11.5 µM
77 | CCCCCCC[S+]([O-])c1cc(-c2ccccc2)c(-c2ccccc2)nn1 (stereo unspecified) | 
72 | CCCCCCOc1cc(-c2ccccc2)c(-c2ccccc2)nn1 | 
87 | CCCCCCCCC[S+]([O-])c1cc(-c2ccccc2)c(-c2ccccc2)nn1 (stereo unspecified) | 
